From patent US20040014212A1, “Preparation and xenotransplantation or porcine islets” (priority 2000, published 2004)

Columns and labels:
[1] = tested on: porcine islets; test: Static glucose stimulation (SGS): insulin secretion of cultured porcine islets; assay type: cell-based; conditions: for effect of exposure beyond 24 hrs on insulin production in response to glucose: post isolation
[2] = tested on: porcine islets; test: as above; assay type: cell-based
Excerpt: Static glucose stimulation (SGS) is used to assess in vitro function of the porcine islets by exposing them to low and high concentrations of glucose and theophylline. Determination of the in vitro insulin secretory capacity is undertaken on both free islets (after 3 days in culture) and after their subsequent encapsulation or confinement.
Keep the cells 3 days in culture before Static Glucose Stimulation (SGS). SGS involves exposure of the cells to low and high concentration of glucose to check insulin production. Using 0.1 ug/ml concentration add IGF1 and GPE to two plates 24 hours before SGS (day 2 after isolation)

[3] = Incubated 24 hrs with 1.0 ug/ml IgF-1

Compound	increase in insulin secretion in response to glucose challenge ([1]; Lidocaine during digestion, after 3 days in culture) [fold]	Insulin secretion in response to 19.4 mM Glucose + 10 mM Theophyline After 3 days culture Post isolation ([1]; islets from Collagenase digestion, with or without 1 mM Lidocaine) [uU/hr/100 IEQ]	effect of withdrawal of Nicotinamide from the culture media on islet insulin production [2]	concentration in culture sufficient to produce optimal insulin secretion during glucose challenge ([2]; IgF-1 in culture) [µg/mL]	Insulin secretion In response to 19.4 mM Glucose + 10 mM Theophyline 7 days post isolation [2, 3] [uU/hr/100 IEQ]	Insulin secretion In response to 19.4 mM Glucose + 10 mM Theophyline After 3 days [2, 3] [uU/hr/100 IEQ]	Insulin secretion In response to 19.4 mM Glucose + 10 mM Theophyline After 3 days culture Post isolation ([2]; Incubated 3 days With 0.1 ug/ml IgF-1 Without Nicotinamide) [uU/hr/100 IEQ]	increase of insulin response to glucose ([2]; porcine islets in culture exposed to IgF-1) [fold]	persistence of increased insulin production post exposure [1] [days]	Insulin secretion In response to 19.4 mM Glucose + 10 mM Theophyline, increase Compared to control ([1]; 3 days post IgF-1 Exposure)	Insulin secretion In response to 19.4 mM Glucose + 10 mM Theophyline, increase Compared to control ([1]; 14 days post IgF-1 Exposure)	Insulin secretion In response to 19.4 mM Glucose + 10 mM Theophyline 7 days post isolation ([1]; Incubated 7 days with 0.1 ug/ml IgF-1) [uU/hr/100 IEQ]	effect of increasing the concentration in culture on insulin response ([1]; above the sufficient concentration)	effect of exposure beyond 24 hrs on insulin production in response to glucose [1]	effect on insulin production of porcine islet cells ([2]; 0.1 μg/ml during culturing, initial exposure of 24 hrs)	Insulin secretion In response to 19.4 mM Glucose + 10 mM Theophyline After 3 days culture Post isolation ([1]; Incubated 24 hrs With 0.1 ug/ml IgF-2 day 1, second sub-table) [uU/hr/100 IEQ]	Insulin secretion In response to 19.4 mM Glucose + 10 mM Theophyline After 3 days culture Post isolation ([1]; Incubated 7 days with 0.1 ug/ml IgF-2) [uU/hr/100 IEQ]
CCN(CC)CC(=O)Nc1c(C)cccc1C [Lidocaine, reference compound]	3	163.8															
IgF-1: Human Insulin-like Growth Factor I, a potent mitogenic growth factor			eliminated the benefit of IgF-1	0.1	57.5	56.8	47.6	≤ 3	≥ 14	1.5-fold increase	1.3-fold increase	58	No further benefit	no increased benefit			
IgF-2: insulin-like growth factor II									≤ 3					failed to increase	appeared to increase	32	38.4
